Read-outs that look alike come from different tables or passages of the source.
How the values were obtained:
[1] = test system: HCT-116 cells; assay: BrdU incorporation into DNA (flow cytometry); format: cell-based, human; design: unit not given here; settings: inhibition of BrdU incorporation, unit not given; for BrdU 72: analysis at 72 hours; for BrdU 24: analysis at 24 hours; for BrdU 48: analysis at 48 hours
Protocol: This method measured the percentage of cells that incorporated the nucleotide analog, BrdU, into newly synthesized DNA as cells progressed through the S phase of the cell cycle. The inhibition of BrdU incorporation was used as a measure of a Cdlc inhibitor's effect on S phase progression and DNA replication.
3 sets of HCT-116 cells (100,000 cells/set) were plated in T25 flasks and incubated with a test compound as above. Analysis was done at 24, 48, and 72 hours. BrdU was added to each T-25 flask from a stock of 10 mg/ml to a final concentration of 10 μM and the cells were incubated for an additional 16-18 hours at 37° C. The cells were then prepared for flow cytometric analysis according to manufacturer's protocol (BrdU Flow kit, BD-Pharmingen catalogue # 2354KK) as follows:
Cells were harvested (adherent and floating) from the T25 flasks directly into Falcon 12×75 flow cytometric tubes as above followed by fixation and permeabilization with the addition of 100 μl Cytofix/Cytoperm buffer (30 minutes, room temperature). The cells were then washed with 1 ml of Perm Wash buffer and the cell pellets were resuspended in 100 μl Cytoperm Plus buffer and incubated on ice for 10 minutes. The cells were then washed again with 1 ml of Perm Wash buffer and the fixation was repeated in 100 μl of Cytofix/Cyto Perm buffer for 10 minutes at room temperature. The cells were then washed with 1 ml of Perm Wash buffer. The cells were next treated for one hour at 37° C. with 100 μl DNase to expose incorporated BrdU followed by another wash step with 1 ml of Perm Wash buffer. […] Cells were protected from light and incubated at room temperature for 20-30 minutes. Following the incubation, the cells were washed with 1 ml of Perrn Wash buffer, resuspended in 300 μl of 2% FBS in PBS, and analyzed on the flow cytometer.

[2] = test system: HCT-116; assay: Calcein AM viability assay, HCT-116; format: cell-based, human; settings: 72-hours incubation
Protocol: (§1) The potency of Cdk inhibitors, as measured by loss of cellular viability, was determined with the Calcein AM assay (Molecular Probes). Calcein AM is a substrate of intracellular esterases, which is cleaved only in viable cells to generate a fluorescent product that can be quantified with a fluorescent plate reader. The fluorescent signal is proportional to the number of viable cells, and thus loss of signal in response to the exposure of cells to Cdk inhibitors correlates with a loss of viability. This assay distinguishes cell cycle arrest from loss of viability and is thus well suited for the evaluation of Cdk inhibitors.
(§2) Cellular IC50's were determined in the human colorectal carcinoma cell line, HCT-116, and the normal human fibroblast, IMR90. Protein adjusted IC50's were also determined in HCT-116. Results are presented in Table 3 below (HCT-116 (viability/protein adjusted) and IMR-90).
(§3) HCT-116 or IMR90 cells were recovered from sub-confluent plates by trypsinization and 1,000 or 4,000 cells, respectively, were plated in 24-well dishes and incubated overnight at 37° C., 5% CO2. HCT-116 cells were cultured in RPMI-1640, 10% FCS, and IMR90 cells were cultured in Minimum Essential Medium-alpha, 10% FCS. After overnight incubation to allow.adlierence, the media was aspirated from each well and replaced with media containing a test compound at a concentration from 0 to 250 nM, spanning a total of 7 doses. The plates were returned to the incubator and cultured for an additional 3 days. […] After 72-hours incubation with the test compound, the cells were washed twice with 1×PBS, talking special care to remove all residual buffer.
(§4) A 5 μM Calcein AM. solution was prepared by dissolving a 50 μg aliquot of Calcein (Molecular Probes catalog # C3100) in 50 μl DMSO. After the Calcein had completely dissolved (10 minutes at room temperature), it was diluted into 10 ml PBS. Calcein/PBS (0.5 ml) was added to each well. The plates were incubated for 75 minutes at 37° C. (protected from light) and the fluorescent signal was read on a fluorescent plate reader (excitation 485/20 and emission 530/25).

[3] = test system: HCT-116 cells; assay: Clonogenic survival assay with HCT-116 cells; format: cell-based; settings: Homo sapiens
Protocol: This assay was used to determine the concentration of a compound that results irreversible loss of viability after a specified period of exposure.
Media (RPMI-1640, 10% FCS, pen/strep) was pre-warnied to 37° C. in a water bath. Cells were incubated and grown at 37° C., 5% CO2. Cells were recovered by trypsinization from sub-confluent plates and counted using a hemocytometer. 1×10^4 cells were plated in 25 mls of media in a 15 cm tissue culture dish. 14 plates were set up for each test compound, and were incubated overnight at 37° C. The compound was diluted into media at 7 concentrations and the media on the cells was replaced with that containing the test compound. Two plates were set up for each concentration of the compound to be tested, as well as two control plates without compound. […] Colonies were stained with crystal violet solution (0.4% crystal violet, 20 % ethanol) for 5 minutes, washed twice with distilled water, and counted.

[4] = test system: IMR90; assay: Calcein AM viability assay, IMR90; format: cell-based; settings: IMR-90, normal human fibroblast, 72-hours incubation
Protocol: as §1, §2, §3, §4

[5] = test system: NCI panel of 60 cell lines; assay: NCI panel of human tumor cell lines (SRB assay), MG-MID; format: cell-based; settings: 48 hours incubation with compound
From the text: (§5) The evaluation of compounds at the National Cancer Institute in their panel of 60 cell lines provides a wealth of information regarding efficacy in a wide range of tumor types and genetic backgrounds. Included within this panel are cell lines derived from leukemia, melanoma and cancers of the lung, colon, brain, ovary, breast, prostate and kidney. Use of this panel provides a measure of the efficacy of compounds in cells with alterations in many genes that are associated with neoplastic transformation including p53 and Her2/Neu as well as those involved in metabolism and those which confer multi-drug resistance. The data generated in these cell lines with the protocol described below can be used to evaluate the activity of compounds.
(§6) Cells were grown in RPMI-1640 10% FCS and plated in 96 well micro-titer plates at densities ranging from 5,000 to 40,000 cells/well. The plates were incubated for 24 hours at 37° C., 5% CO2 for 24 hours. Media containing twice the desired final concentration of the compound (5 doses spanning 4 logs) was prepared and 100 μl was added to each well containing 100 μl media plus cells to yield the desired final concentration. The plates were then incubated for an additional 48 hours.
(§7) The effect of the compound on cellular viability was determined with the Sulforhodamine B (SRB) assay which measures total protein. Cells were fixed with cold TCA to a fmal concentration of 10% and incubated at 4° C. for 60 minutes. The supernatant was discarded and the plates were washed five times with water and air-dried. SRB solution at […] in 1% acetic acid was added to each well and the plates were incubated for 10 minutes at room temperature. The plates were washed five times with 1% acetic acid and air-dried. The bound stain was solubilized with 10 mM trizma base and the absorbance was read on a plate reader at […].

[6] = test system: ADR-res; assay: NCI panel (SRB assay), ADR-res cell line; format: cell-based, human; settings: 48 hours incubation with compound, unit not given
From the text: as §5, §6, §7

[7] = test system: arrested IMR90 cells; assay: Arrested cell assay (serum starvation), IMR90; format: cell-based, human; design: unit not given here; settings: serum-starved arrested cells; unit not given
Protocol: (§8) Cyclin-dependent kinase (Cdk) activity is required to promote the progression of cells through distinct phases of the cell division cycle. The proliferation of normal, non-transformed, cells in culture requires the presence of growth factors, the removal of which, through serum deprivation, leads to a loss of Cdlc activity and consequent exit from the cell cycle as cells enter the quiescent phase, Go.
IMR90 cells were plated in triplicate for each compound concentration to be tested in MEM-α media containing 10% fetal calf serum at a density of either 2,000 or 20,000 cells per well in 24-well dishes and incubated overnight at 37° C., 5% CO2. The media was removed from the 20,000 cell-per-well dish, cells were washed once with serum-free media, and serum-fiee media was placed on cells. The plates containing cells both in the presence and absence of serum were incubated for 3 additional days.
(§9) To ensure that the cells had indeed exited the cell cyde upon serum withdrawal, the percentage of BrdU positive cells, indicative of those progressing through S phase, was determined in each experiment. For the purpose of this experiment, cellular viability was evaluated simultaneously with the use of SNARF-1, a fluorescent substrate of intracellular esterases which are only active in viable cells. Together, the evaluation of BrdU incorporation and SNARF-1 cleavage by flow cytometry provided an assessment of the viability of arrested cells on a single cell basis. For this analysis, the cells were stained with SNARF-1 as follows and then prepared for determination of BrdU incorporation as described above.
(§10) HCT-116 and IMR90 cells were plated at the density described below in T25 flasks in serum-containing media (RPMI-1640 or MEM-a with 10% FCS, respectively). After 24 hours of growth, the media was removed and, after washing the cells, replaced with serum-free media. • HCT-116+FCS 5,000 cells • HCT-116−FCS 100,000 cells • IMR90+FCS 100,000 cells • IMR90−FCS 200,000 cells
(§11) The IMR90 cells were grown for an additional 3 days and the HCT-116 cells were grown for an additional 6 days before pulsing with BrdU. A 50 μg aliquot of SNARF-1 (Molecular Probes catalog #C1272) was dissolved in 50 μl DMSO at room temperature for 10 minutes and then diluted into 10 ml PBS. The SNARF-1 was further diluted 1:64,000 before 200 μl was added to each tube of cells which had been cultured in the presence or absence of serum and pulsed with BrdU for 20 hours. The cells were incubated at 37° C. for 30 minutes and then washed with 3 ml of PBS.
(§12) These cells were then fixed and prepared for the measurement of BrdU incorporation as described above. The percentage of viable (FL-2) and BrdU positive (FL-1) cells was determined on a FACScan flow cytometer.

[8] = test system: arrested HCT-116 cells; assay: Arrested cell assay (serum starvation), HCT-116; format: cell-based, human; design: unit not given here; settings: serum-starved arrested cells; unit not given
Protocol: as §8
HCT-116 cells were plated in triplicate for each compound concentration to be tested in RPMI 1640 media containing 10% fetal calf serum at a density of either 200 or 2,000 cells per well in 24 well dishes, and incubated overnight at 37° C., 5% CO2. The media from the plate containing 2,000 cells per well was removed, cells were washed once with serum free media and 1 ml of serum free media was placed on cells. Tle plates containing cells both in the presence and absence of serum were incubated for 6 additional days.
as §9, §10, §11, §12

[9] = Homo sapiens, RPMI-1640 10% FCS, read-out: HCT-116 IC50 viability
[10] = 24 h exposure, read-out: HCT-116 IC50 clonogenic 24 h
[11] = plus 1 mg/ml alpha acidic glycoprotein and 45 mg/ml human serum albumin, read-out: HCT-116 IC50 protein adjusted

Row | Compound | BrdU 72 [1] | IC50 [2, 9] | IC50 ([3]; 48 h exposure, read-out: HCT-116 IC50 clonogenic 48 h) | IC50 ([3]; 72 h exposure, read-out: HCT-116 IC50 clonogenic 72 h) | IC50 [4] | NCI panel MG-MID [5] | NCI panel ADR-res [6] | IC50 [3, 10] | BrdU 24 [1] | BrdU 48 [1] | Arrested cell IMR90 [7] | Arrested cell HCT [8] | IC50 [2, 11]
1 | CC(C)c1nn(-c2c(Cl)cc(Cl)cc2Cl)c2nc(Cc3ccc(OCCN4CCOCC4)cc3)[nH]c(=O)c12.Cl [A] | <0.1 | < 100 nM | < 100 nM | < 100 nM | < 100 nM | <0.1 µM | <1 |  |  |  |  |  | 
2 | Cc1cc(-c2[nH]nc3c2C(=O)c2c(NC(=O)NN4CCN(C)CC4)cccc2-3)ccc1OCCN1CCCC1 [Compound P] |  | < 10 nM |  |  | < 100 nM |  |  | < 100 nM |  |  |  |  | 
3 | CC(C)c1nn(-c2c(Cl)cc(Cl)cc2Cl)c2nc(Cc3ccc(NS(=O)(=O)CCCN4CCOCC4)cc3)[nH]c(=O)c12.Cl [D] | <0.1 |  |  |  | < 10 nM |  |  |  | <0.1 | <0.1 | >1.0 | <0.01 | 
4 | Cc1cc(OCCN2CCCC2)ccc1-c1[nH]nc2c1C(=O)c1c(NC(=O)NN3CCN(C)CC3)cccc1-2.Cl.Cl.Cl [L] | <0.1 |  |  |  | > 100 nM | >10 µM | >10 |  | <0.1 | <0.1 |  |  | < 1000 nM
5 | CN1CCN(NC(=O)Nc2cccc3c2C(=O)c2c-3n[nH]c2-c2ccc(OCCN3CCC[C@H]3CO)cc2)CC1.Cl.Cl.Cl [M] | <0.1 |  |  |  | < 100 nM |  |  |  | <0.1 | <0.1 | >1.0 | <0.1 | < 1000 nM
6 | CN1CCN(NC(=O)Nc2cccc3c2C(=O)c2c-3n[nH]c2-c2ccc(OCCN(CCO)CCO)cc2)CC1 [N] |  | < 1000 nM |  |  | > 100 nM |  |  |  |  |  |  |  | < 1000 nM
7 | CN1CCN(NC(=O)Nc2cccc3c2C(=O)c2c-3n[nH]c2-c2ccc(OCCN3CC[C@H](O)C3)cc2)CC1.Cl.Cl.Cl [O] | <1 |  |  |  | < 100 nM |  |  | < 10 nM | <0.1 | <1 | >0.1 | <0.1 | 

— patent publication US20050090471A1, “Inhibitors of cyclin-dependent kinases, compositions and uses related thereto” (GPC Biotech, Inc, priority 2001, published 2005)
